According to ChEMBL document CHEMBL1201862, “PubChem BioAssay data set” (2004):
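In this assay, cells in 96-well plates receive the compound at five concentrations for 48 hours. Endpoints are linearly interpolated between the surrounding concentrations. GI50 = concentration required for 50% inhibition of growth.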 Activity calls are given as the source filed them. No stated cut-off is given here; in the data, active = GI50 up to about 1.1 µM and inactive = higher.

Experiments:
Test in all cases: NCI tumour cell line growth inhibition, 48 h
[1] = tested on: 786-0
[2] = tested on: CAKI-1
[3] = tested on: COLO 205
[4] = tested on: HOP-92
[5] = tested on: IGROV-1
[6] = tested on: KM12
[7] = tested on: M14
[8] = tested on: M19-MEL
[9] = tested on: OVCAR-3
[10] = tested on: RXF 393
[11] = tested on: SF-295
[12] = tested on: SK-MEL-2
[13] = tested on: SK-MEL-5
[14] = tested on: SNB-19
[15] = tested on: SNB-75
[16] = tested on: SR
[17] = tested on: U-251
[18] = tested on: BT-549
[19] = tested on: DU-145
[20] = tested on: Hs-578T

Measured: GI50

[N-]=[N+]=Nc1ncnc2c1sc(=S)n2-c1ccccc1
inactive: [1] > 100 µM | [2] > 100 µM | [3] > 100 µM | [4] > 100 µM | [5] > 100 µM | [6] > 100 µM | [7] > 100 µM | [8] > 100 µM | [9] > 100 µM | [10] > 100 µM | [11] > 100 µM | [12] > 100 µM | [13] > 100 µM | [14] > 100 µM | [15] > 100 µM | [16] > 100 µM | [17] > 100 µM

C=CN1C(=O)[C@H](Oc2ccccc2)[C@@H]1c1ccccc1
inactive: [1] 18.9 µM | [5] > 100 µM | [6] 33 µM | [7] 33.1 µM | [8] 43.4 µM | [10] 17.8 µM | [11] 26.1 µM | [12] 12.9 µM | [13] 31.5 µM | [14] 33.6 µM | [15] 15.6 µM | [16] 40.3 µM | [17] 36.4 µM

COC(=O)C(CBr)CBr
inactive: [1] 4.52 µM | [18] 2.65 µM | [2] 5.51 µM | [3] 1.27 µM | [19] 16.6 µM | [4] 1.79 µM | [20] 4.65 µM | [5] 10.4 µM | [6] 8.04 µM | [7] 2.15 µM | [8] 3.21 µM | [9] 2.65 µM | [10] 2.19 µM | [11] 16.2 µM | [12] 10.8 µM | [13] 8.75 µM | [14] 8.51 µM | [15] 16.3 µM | [17] 5.56 µM

Cc1ccc(NC(=O)CCc2n[nH]c(=S)o2)cc1
inactive: [1] > 100 µM | [2] > 100 µM | [3] > 100 µM | [4] > 100 µM | [5] > 100 µM | [6] > 100 µM | [7] > 100 µM | [8] > 100 µM | [9] > 100 µM | [10] > 100 µM | [11] > 100 µM | [13] > 100 µM | [14] > 100 µM | [15] > 100 µM | [16] > 100 µM | [17] > 100 µM

CCN(CC)c1ccc(/N=N/c2ccc(-c3nc4cccnc4s3)cc2)cc1
inactive: [1] 45.4 µM | [2] > 100 µM | [3] > 100 µM | [4] > 100 µM | [5] > 100 µM | [6] > 100 µM | [7] > 100 µM | [8] 7.69 µM | [9] > 100 µM | [11] > 100 µM | [12] > 100 µM | [13] > 100 µM | [14] > 100 µM | [15] 32.8 µM | [16] > 100 µM | [17] > 100 µM

CN(C)CC/C(=N\Nc1ccc(Cl)cc1Cl)c1ccccc1
inactive: [1] 13.7 µM | [3] 15.1 µM | [5] 10.1 µM | [6] 16 µM | [7] 15.5 µM | [8] 17.2 µM | [9] 14 µM | [10] 7.96 µM | [11] 18.5 µM | [12] 14.5 µM | [13] 14.6 µM | [14] 16.1 µM | [15] 7.74 µM | [16] 12 µM | [17] 12.4 µM

CN(C=O)/C=C/c1cc(O)ccc1O
inactive: [1] 18.5 µM | [2] 20.3 µM | [3] 21.3 µM | [19] 33.4 µM | [4] 19.9 µM | [5] 51.3 µM | [6] 63.7 µM | [7] 41.3 µM | [8] 20.8 µM | [9] 18.2 µM | [10] 18 µM | [11] 32.5 µM | [12] 35.6 µM | [13] 42 µM | [14] > 72.8 µM | [15] 21.7 µM | [16] 20.5 µM | [17] 39.6 µM

COC(=O)[C@H]1C=C[C@@H](C)n2c(=O)c3ccccc3c(=O)n21
inactive: [1] > 100 µM | [2] > 100 µM | [3] > 100 µM | [4] > 100 µM | [5] > 100 µM | [6] > 100 µM | [7] > 100 µM | [8] > 100 µM | [9] > 100 µM | [10] > 100 µM | [11] > 100 µM | [12] > 100 µM | [13] > 100 µM | [14] > 100 µM | [15] > 100 µM | [16] > 100 µM | [17] > 100 µM

CC(C)(C)OC(=O)c1cccnc1/C=N/O
inactive: [1] 67.6 µM | [2] > 100 µM | [3] > 100 µM | [4] > 100 µM | [5] > 100 µM | [6] > 100 µM | [7] > 100 µM | [8] > 100 µM | [9] 53.1 µM | [10] > 100 µM | [11] 78.7 µM | [12] > 100 µM | [13] > 100 µM | [14] > 100 µM | [15] > 100 µM | [16] > 100 µM | [17] > 100 µM

O=C1c2ccccc2C(=O)N1C/C=N/NS(=O)(=O)c1cccc([N+](=O)[O-])c1
inactive: [1] > 100 µM | [2] > 100 µM | [3] > 100 µM | [5] > 100 µM | [6] > 100 µM | [7] > 100 µM | [8] > 100 µM | [10] > 100 µM | [11] > 100 µM | [12] > 100 µM | [13] > 100 µM | [14] > 100 µM | [15] > 100 µM | [16] > 100 µM | [17] > 100 µM

O=C(Nc1nc2ccccc2n1Cc1ccccc1)NC12CC3CC(CC(C3)C1)C2
inactive: [1] 24 µM | [2] 88.9 µM | [3] 48.5 µM | [4] 23 µM | [5] 75.3 µM | [6] > 100 µM | [7] 92.5 µM | [8] 61.4 µM | [9] 38.5 µM | [10] 19.5 µM | [11] 13.4 µM | [12] > 100 µM | [13] 54.6 µM | [14] 44.1 µM | [15] 22.4 µM | [16] 80.2 µM | [17] 39 µM

CNC1=Nc2ccc(Cl)cc2C(OP(=O)(N2CCOCC2)N2CCOCC2)=NC1
inactive: [1] > 100 µM | [2] > 100 µM | [6] > 100 µM | [7] > 100 µM | [8] > 100 µM | [9] > 100 µM | [10] > 100 µM | [11] > 100 µM | [12] > 100 µM | [13] > 100 µM | [14] > 100 µM | [15] > 100 µM | [16] > 100 µM | [17] > 100 µM

COC(=O)c1cccc2cccc(C(=O)Nc3ccc(C)cc3C)c12
inactive: [1] > 100 µM | [2] > 100 µM | [3] 69.5 µM | [4] 61.8 µM | [5] > 100 µM | [6] > 100 µM | [7] > 100 µM | [8] > 100 µM | [9] 72.8 µM | [10] 39.3 µM | [11] > 100 µM | [12] > 100 µM | [13] > 100 µM | [14] > 100 µM | [15] > 100 µM | [16] 37.6 µM | [17] > 100 µM

O=c1cc(-c2cccnc2)[nH]c2cc3c(cc12)OCO3
inactive: [1] 33.3 µM | [18] 30.3 µM | [3] 13.9 µM | [19] 33 µM | [4] 13.5 µM | [20] 11.3 µM | [5] 4.47 µM | [6] 3.77 µM | [7] 4.59 µM | [8] 3.59 µM | [9] 2.81 µM | [10] 9.02 µM | [11] 11.1 µM | [12] 8.04 µM | [13] 2.73 µM | [14] 13 µM | [15] 3.29 µM | [17] 4.16 µM

CC(=O)c1ccc(NC(=O)C(=O)C(C(=O)/C=C/c2ccccc2)C2OC(=O)c3ccccc32)cc1 (stereo unspecified)
inactive: [1] > 100 µM | [2] > 100 µM | [3] > 100 µM | [4] > 100 µM | [5] > 100 µM | [6] > 100 µM | [7] > 100 µM | [8] > 100 µM | [10] > 100 µM | [11] > 100 µM | [12] > 100 µM | [13] > 100 µM | [14] > 100 µM | [15] > 100 µM | [16] 60.8 µM | [17] 83 µM

CCCCCCC(O)C/C=C/CCCCCC/C(C(=O)OC)=C(/O)C(=O)OCC (stereo unspecified)
inactive: [1] > 100 µM | [2] > 100 µM | [3] > 100 µM | [4] > 100 µM | [5] > 100 µM | [6] > 100 µM | [7] > 100 µM | [8] > 100 µM | [9] > 100 µM | [11] > 100 µM | [12] > 100 µM | [13] > 100 µM | [14] > 100 µM | [15] > 100 µM | [16] 7.93 µM | [17] > 100 µM

N#CC(C#N)=C(N)/C(C#N)=C/c1cc(O)c(O)c(Br)c1
inactive: [1] > 78.2 µM | [18] > 100 µM | [2] > 100 µM | [3] 52.2 µM | [19] 97.5 µM | [4] 46 µM | [20] 38.9 µM | [5] > 65.2 µM | [6] 75.9 µM | [7] > 75.9 µM | [8] > 100 µM | [9] 27.5 µM | [10] > 100 µM | [11] > 82 µM | [12] 90.6 µM | [13] 60.3 µM | [14] > 67.3 µM | [15] 52.7 µM | [16] 37.8 µM | [17] 53 µM
